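Tested at 5 concentrations; 48 h exposure; 96-well plates; endpoints linearly interpolated, else capped at highest concentration. GI50 is the concentration that inhibits growth by half. At the TGI there is no net growth.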
Assays:
Experiment in all cases: NCI-60 cell line screen, 48 h
[1] = system: 786-0 renal
[2] = system: A498 renal
[3] = system: A549 NSCLC
[4] = system: ACHN renal
[5] = system: BT-549 breast
[6] = system: CAKI-1 renal
[7] = system: CCRF-CEM leukemia
[8] = system: COLO 205 colon
[9] = system: DU-145 prostate
[10] = system: EKVX NSCLC
[11] = system: HCC-2998 colon
[12] = system: HCT-116 colon
[13] = system: HCT-15 colon
[14] = system: HL-60(TB) leukemia
[15] = system: HOP-62 NSCLC
[16] = system: HOP-92 NSCLC
[17] = system: HS 578T breast
[18] = system: HT29 colon
[19] = system: IGROV1 ovarian
[20] = system: K-562 leukemia
[21] = system: KM12 colon
[22] = system: M14 melanoma
[23] = system: MALME-3M melanoma
[24] = system: MCF7 breast
[25] = system: MDA-MB-231 breast
[26] = system: MDA-MB-435
[27] = system: MDA-MB-468 breast
[28] = system: MOLT-4 leukemia
[29] = system: NCI-H226 lung
[30] = system: NCI-H23 lung
[31] = system: NCI-H460 lung
[32] = system: NCI-H522 lung
[33] = system: OVCAR-3 ovarian
[34] = system: OVCAR-4 ovarian
[35] = system: OVCAR-5 ovarian
[36] = system: OVCAR-8 ovarian
[37] = system: PC-3 prostate
[38] = system: RPMI-8226 leukemia
[39] = system: RXF 393 renal
[40] = system: SF-268 CNS
[41] = system: SF-295 CNS
[42] = system: SF-539 CNS
[43] = system: SK-MEL-2 melanoma
[44] = system: SK-MEL-28 melanoma
[45] = system: SK-MEL-5 melanoma
[46] = system: SK-OV-3 ovarian
[47] = system: SN12C renal
[48] = system: SNB-19 CNS
[49] = system: SNB-75 CNS
[50] = system: SR leukemia
[51] = system: SW-620 colon
[52] = system: T-47D breast
[53] = system: TK-10 renal
[54] = system: U251 CNS
[55] = system: UACC-257 melanoma
[56] = system: UACC-62 melanoma
[57] = system: UO-31 renal
[58] = system: LOX IMVI melanoma
[59] = system: NCI/ADR-RES ovarian

Compound: N#Cc1c(-c2ccc(Cl)cc2)nc2n[nH]c(-c3ccc(Cl)cc3)c2c1-c1ccc(C(F)(F)F)cc1
- GI50 [1]: 2.57 µM
- TGI [1]: 7.55 µM
- GI50 [2]: 3.1 µM
- TGI [2]: 8.71 µM
- GI50 [3]: 3.45 µM
- TGI [3]: 12 µM
- GI50 [4]: 2.85 µM
- TGI [4]: 9.97 µM
- GI50 [5]: 2.17 µM
- TGI [5]: 4.78 µM
- GI50 [6]: 2 µM
- TGI [6]: 7.2 µM
- GI50 [7]: 2.18 µM
- TGI [7]: 6.57 µM
- GI50 [8]: 1.71 µM
- TGI [8]: 3.24 µM
- GI50 [9]: 3.6 µM
- TGI [9]: 15.9 µM
- GI50 [10]: 2.71 µM
- TGI [10]: 11.4 µM
- GI50 [11]: 2.29 µM
- TGI [11]: 5.36 µM
- GI50 [12]: 1.61 µM
- TGI [12]: 3.74 µM
- GI50 [13]: 2.57 µM
- TGI [13]: 10.4 µM
- GI50 [14]: 1.79 µM
- TGI [14]: 4.79 µM
- GI50 [15]: 3.06 µM
- TGI [15]: 9.84 µM
- GI50 [16]: 1.57 µM
- TGI [16]: 4.37 µM
- GI50 [17]: 2.23 µM
- TGI [17]: 7.18 µM
- GI50 [18]: 2.77 µM
- TGI [18]: 10.9 µM
- GI50 [19]: 1.92 µM
- TGI [19]: 6.49 µM
- GI50 [20]: 2.09 µM
- TGI [20]: 5.91 µM
- GI50 [21]: 2.49 µM
- TGI [21]: 8.32 µM
- GI50 [22]: 2.17 µM
- TGI [22]: 5.53 µM
- GI50 [23]: 1.98 µM
- TGI [23]: 4.86 µM
- GI50 [24]: 2.43 µM
- TGI [24]: 10.8 µM
- GI50 [25]: 2.12 µM
- TGI [25]: 4.64 µM
- GI50 [26]: 2.1 µM
- TGI [26]: 4.86 µM
- GI50 [27]: 2.59 µM
- TGI [27]: 9.55 µM
- GI50 [28]: 1.72 µM
- TGI [28]: 6.12 µM
- GI50 [29]: 2.37 µM
- TGI [29]: 8.97 µM
- GI50 [30]: 2.24 µM
- TGI [30]: 7.68 µM
- GI50 [31]: 2.08 µM
- TGI [31]: 4.57 µM
- GI50 [32]: 2.03 µM
- TGI [32]: 5.68 µM
- GI50 [33]: 2.19 µM
- TGI [33]: 5.07 µM
- GI50 [34]: 2.5 µM
- TGI [34]: 8.38 µM
- GI50 [35]: 2.16 µM
- TGI [35]: 5.22 µM
- GI50 [36]: 3.23 µM
- TGI [36]: 12.5 µM
- GI50 [37]: 2.25 µM
- TGI [37]: 9.31 µM
- GI50 [38]: 1.93 µM
- TGI [38]: 6.27 µM
- GI50 [39]: 2.64 µM
- TGI [39]: 9.54 µM
- GI50 [40]: 2.92 µM
- TGI [40]: 11.5 µM
- GI50 [41]: 2.62 µM
- TGI [41]: 8.3 µM
- GI50 [42]: 1.85 µM
- TGI [42]: 3.76 µM
- GI50 [43]: 1.72 µM
- TGI [43]: 3.26 µM
- GI50 [44]: 2.68 µM
- TGI [44]: 8.7 µM
- GI50 [45]: 1.92 µM
- TGI [45]: 3.79 µM
- GI50 [46]: 3.03 µM
- TGI [46]: 10.2 µM
- GI50 [47]: 2.59 µM
- TGI [47]: 8.35 µM
- GI50 [48]: 3.38 µM
- TGI [48]: 14.7 µM
- GI50 [49]: 1.75 µM
- TGI [49]: 6.59 µM
- GI50 [50]: 1.69 µM
- TGI [50]: 4.42 µM
- GI50 [51]: 2.76 µM
- TGI [51]: 10.8 µM
- GI50 [52]: 2.53 µM
- TGI [52]: 8.38 µM
- GI50 [53]: 3.99 µM
- TGI [53]: 15.6 µM
- GI50 [54]: 3.03 µM
- TGI [54]: 11.2 µM
- GI50 [55]: 2.72 µM
- TGI [55]: 8 µM
- GI50 [56]: 1.87 µM
- TGI [56]: 5.57 µM
- GI50 [57]: 2.1 µM
- TGI [57]: 8.61 µM

Compound: C#C[C@]1(O)CC[C@H]2[C@@H]3CC=C4c5sc(Nc6ccc(C(F)(F)F)cn6)nc5CC[C@]4(C)[C@H]3CC[C@@]21C
- GI50 [1]: 1.47 µM
- TGI [1]: 3.45 µM
- GI50 [2]: 2.43 µM
- TGI [2]: 5.45 µM
- GI50 [3]: 6.95 µM
- TGI [3]: > 100 µM
- GI50 [4]: 3.34 µM
- TGI [4]: 24.2 µM
- GI50 [5]: 2.54 µM
- TGI [5]: 8.13 µM
- GI50 [6]: 1.92 µM
- TGI [6]: 5.62 µM
- GI50 [7]: 2.76 µM
- TGI [7]: > 100 µM
- GI50 [8]: 2.75 µM
- TGI [8]: 13.8 µM
- GI50 [9]: 4.6 µM
- TGI [9]: 22.5 µM
- GI50 [10]: 2.15 µM
- TGI [10]: 8.58 µM
- GI50 [11]: 4.82 µM
- TGI [11]: 18.3 µM
- GI50 [12]: 3.22 µM
- TGI [12]: 13.7 µM
- GI50 [13]: 1.72 µM
- TGI [13]: 4.96 µM
- GI50 [14]: 2.67 µM
- TGI [14]: 7.65 µM
- GI50 [15]: 2.32 µM
- TGI [15]: 11.3 µM
- GI50 [16]: 5.41 µM
- TGI [16]: 26.1 µM
- GI50 [17]: 1.45 µM
- TGI [17]: 5.27 µM
- GI50 [18]: 3.85 µM
- TGI [18]: 30.5 µM
- GI50 [19]: 4.16 µM
- TGI [19]: 21 µM
- GI50 [20]: 2.73 µM
- TGI [20]: > 100 µM
- GI50 [21]: 4.49 µM
- TGI [21]: 18.4 µM
- GI50 [58]: 1.84 µM
- TGI [58]: 4.25 µM
- GI50 [22]: 2.57 µM
- TGI [22]: 9.92 µM
- GI50 [23]: 2.89 µM
- TGI [23]: 14.1 µM
- GI50 [24]: 1.96 µM
- TGI [24]: 4.49 µM
- GI50 [25]: 1.88 µM
- TGI [25]: 4.44 µM
- GI50 [26]: 3.04 µM
- TGI [26]: 11.9 µM
- GI50 [27]: 3.16 µM
- TGI [27]: 18.9 µM
- GI50 [28]: 2.62 µM
- TGI [28]: 13.7 µM
- GI50 [29]: 3.91 µM
- TGI [29]: 19.9 µM
- GI50 [30]: 3.08 µM
- TGI [30]: 15.5 µM
- GI50 [31]: 2.86 µM
- TGI [31]: 10.6 µM
- GI50 [32]: 3.97 µM
- TGI [32]: 16.2 µM
- GI50 [59]: 3.76 µM
- TGI [59]: 46 µM
- GI50 [33]: 4.68 µM
- TGI [33]: 35.1 µM
- GI50 [34]: 3.65 µM
- TGI [34]: 31 µM
- GI50 [35]: 4.48 µM
- TGI [35]: 23.8 µM
- GI50 [36]: 9.96 µM
- TGI [36]: > 100 µM
- GI50 [37]: 1.98 µM
- TGI [37]: > 100 µM
- GI50 [38]: 0.564 µM
- TGI [38]: > 100 µM
- GI50 [39]: 0.723 µM
- TGI [39]: 2.54 µM
- GI50 [40]: 4.04 µM
- TGI [40]: 32.6 µM
- GI50 [41]: 0.565 µM
- TGI [41]: 2.07 µM
- GI50 [42]: 0.89 µM
- TGI [42]: 2.66 µM
- GI50 [43]: 2.91 µM
- TGI [43]: 10.6 µM
- GI50 [44]: 1.39 µM
- TGI [44]: 2.93 µM
- GI50 [45]: 2.09 µM
- TGI [45]: 4.8 µM
- GI50 [46]: 2.83 µM
- TGI [46]: 26.7 µM
- GI50 [47]: 4.77 µM
- TGI [47]: 19.2 µM
- GI50 [48]: 2.9 µM
- TGI [48]: 12.2 µM
- GI50 [49]: 1.27 µM
- TGI [49]: 12.7 µM
- GI50 [50]: 2.47 µM
- TGI [50]: 20.4 µM
- GI50 [51]: 2.04 µM
- TGI [51]: 5.03 µM
- GI50 [52]: 3.58 µM
- TGI [52]: 18.4 µM
- GI50 [53]: 6.83 µM
- TGI [53]: 91.2 µM
- GI50 [54]: 1.72 µM
- TGI [54]: 11.3 µM
- GI50 [55]: 3.85 µM
- TGI [55]: 18.4 µM
- GI50 [56]: 1.95 µM
- TGI [56]: 4.5 µM
- GI50 [57]: 3.09 µM
- TGI [57]: 13.7 µM
